Measurements: patent publication US20010034330A1, “Innate immunity-stimulating compositions of CpG and saponin and methods thereof” (priority 1998, published 2001)

Key:
YAC-1 cells = assay: Natural killer cell activity: 51Cr release lysis of YAC-1 target cells by splenocytes of treated mice; format: in vivo, Balb/c mice; conditions: for NK cell response (lysis of YAC-1 cells): Example 1, FIG. 1, 10 ug each, subcutaneous, days 1 and 2; for NK cell response (lysis of YAC-1 cells) / NK activity, dose response: splenocytes day 3; for NK cell activity compared with QS-7 at an equivalent dose / NK activity, dose response: Example 3, FIG. 3, 3, 10, 30 ug s.c. day 1 and day 2
Description: Assessment of natural killer cell activity was carried out by an adaptation of a published method (Hashimoto et al., J. Immunol. 163: 583 (1999)). Balb/c mice (4 per group, female, 8-10 weeks of age) were administered one of five different candidate compositions at days 1 and 2. The compositions evaluated were (1) saline (negative control), (2) 10 ug QS-21, (3) 10 ug CpG (sequence 1826), (4) 0.5 ug murine IL-12 (positive control for NK cell activation), and (5) a combination of 10 ug QS-21 and 10 ug CpG in 0.2 ml saline. All test compositions were administered subcutaneously except for murine IL-12, which was administered intraperitoneally. Splenocytes were removed from the mice at day 3 for use as effector cells in the natural killer cell assay. Such cells were immediately used in a standard ^51Cr release lysis assay. YAC-1 cells (loaded with ^51Cr) were used as target cells. The lysis of this NK cell-sensitive line is indicative of NK cell activation in the splenocyte population.
The time dependence of the administration of CpG/QS-21 on natural killer cell activation was investigated. Balb/c mice (5 per group, female, 8-10 weeks of age) were administered a mixture of 10 ug QS-21 and 10 ug CpG sequence 1826 in a total volume of 0.2 ml by subcutaneous route seven days before (−7d), three days before (−3d), two days before (−2d), and one day before (−1d) assay of natural killer cell activity. Splenocytes were removed from the mice at day 0 for use as effector cells in the natural killer cell assay. YAC-1 cells (loaded with ^51Cr) were used as target cells. Natural killer cell lysis was apparent if the formulation of QS-21/CpG was administered one, two, or three days prior to the assay, but not if the formulation was administered seven days prior to the assay (FIG. 2). This confirms the transient nature of the natural killer cell activity.
Balb/c mice (5 per group, female, 8-10 weeks of age) were administered individually QS-7, QS-21, or CpG sequence 1826 at three different dose levels (3, 10, 30 ug) to determine a dose response curve for these individual compounds. The compositions evaluated were (1) saline (negative control), (2) 3 ug QS-21, (3) 10 ug QS-21, (4) 30 ug QS-21, (5) 3 ug QS-7(6) 10 ug QS-7, (7) 30 ug QS-7, (8) 3 ug sequence CpG 1826, (9) 10 ug CpG sequence 1826, and (10) 30 ug CpG sequence 1826. All test compositions were administered subcutaneously at day 1 and day 2. Splenocytes were removed from the mice at day 3 for use as effector cells in the natural killer cell assay. YAC-1 cells (loaded with ^51Cr) were used as target cells.
This experiment evaluated the natural killer cell stimulating activity induced by various formulations: (1) QS-21 (10 ug), (2) QS-7 (10 ug), (3) CpG sequence 1826 (10 ug), (4) CpG sequence 2006 (10 ug), (5) QS-21 (10 ug)+CpG sequence 1826 (10 ug), (6) QS-21 (10 ug)+CpG 2006 (10 ug), (7) QS-7 (10 ug)+CpG sequence 1826 ( […]), (8) QS-7 (10 ug) +CpG sequence 2006 (10 ug), (9) QS-7 (10 ug) and QS-21 (10 ug) and (10) saline. Balb/c mice (5 per group, female, 8-10 weeks of age) were administered the above formulations by subcutaneous route on day 1 and day 2. Splenocytes were removed from the mice at day 3 for use as effector cells in the natural killer cell assay. YAC-1 cells (loaded with ^51Cr) were used as target cells.

[1] = system: Listeria monocytogenes strain 10403s; assay: Listeria monocytogenes challenge model (spleen colony counts); format: in vivo, Balb/c mice; conditions: Example 5, FIG. 5; given day 0, i.p. challenge with 10^5 colonies day 3, spleens 96 hours after challenge; versus saline, p<0.05 for the two lowest groups
Description: Balb/mice (5 per group, female, 8-10 weeks of age) were administered the following formulations on day 0: Group 1: saline, subcutaneous route. Group 2: 10 ug QS-21 and 10 ug of CpG sequence 1826, subcutaneous route. Group 3: 10 ug QS-21, subcutaneous route. Group 4: 10 ug CpG sequence 1826, subcutaneous route. Group 5: 0.5 ug recombinant murine IL-12, intraperitoneal route. A total volume of 0.2 ml was administered. On day 3, mice were challenged by the intraperitoneal route with 10^5 colonies of Listeria monocytogenes strain 10403s. Spleens were removed at 96 hours after challenge, homogenized, and then cultured in serial 10-fold dilutions overnight on agar plates. Listeria monocytogenes colonies were counted, the number of organisms per spleen determined, and then the geometric mean and standard error were determined for each group. A two-tailed, paired student's t-test of the log10 colonies/spleen was used to show statistical significance.

Row | Substance | NK cell response (lysis of YAC-1 cells) (YAC-1 cells) | NK cell activity compared with QS-7 at an equivalent dose (YAC-1 cells) | NK activity, dose response (YAC-1 cells) | Listeria monocytogenes colony count in spleen [1]
1 | TCCATGACGTTCCTGACGTT [CpG sequence 1826] | slightly enhanced the NK cell activity | higher than that induced by QS-7 | enhance NK activity in a dose dependent fashion | 
2 | QS-21 | higher than CpG and that was nearly equivalent to the positive control, murine IL-12 | higher than that induced by QS-7 | enhance NK activity in a dose dependent fashion | lowest colony counts
